Assay results as given in US20100240924A1, “2-ETHYL-4,6-DIMETHYL-PHENYL-SUBSTITUTED TETRAMIC ACID DERIVATIVES AS PEST CONTROL AGENTS AND/OR HERBICIDES” (BAYER CROPSCIENCE AG, priority 2003, published 2010).

How the values were obtained:
Avena sativa = assay: Herbicidal post-emergence action (Example A, greenhouse); type: in vivo; conditions: 320 g of a.i./ha
Procedure: (§1) Seeds of monocotyledonous and dicotyledonous weed and crop plants are placed into sandy loam in wood fibre pots, covered with soil and cultivated in a greenhouse under good growth conditions. 2-3 weeks after sowing, the test plants are treated at the one-leaf stage. The test compounds, formulated as wettable powders (WP), are, in various dosages with a water application rate of. 600 l/ha (converted), with 0.2% of wetting agent added, sprayed onto the green parts of the plants. After the test plants were kept in the greenhouse under optimum growth conditions for about 3 weeks, the effect of the preparations is rated visually in comparison to untreated controls (herbicidal effect in percent (%): 100% effect=the plants have died, 0% effect=like control plants).

Setaria = assay: as above; type: in vivo; conditions: 320 g of a.i./ha
Procedure: as §1

Lolium = assay: as above; type: in vivo; conditions: 320 g of a.i./ha
Procedure: as §1

Stellaria = assay: as above; type: in vivo; conditions: 320 g of a.i./ha, rated visually after about 3 weeks
Procedure: as §1

Sinapis = assay: as above; type: in vivo; conditions: 320 g of a.i./ha, rated visually after about 3 weeks
Procedure: as §1

[1] = system: greenhouse red spider mite (Tetranychus urticae); assay: Tetranychus test (OP-resistant/spray treatment); type: in vivo; conditions: 100 g/ha, OP-resistant, spray treatment of bean leaf discs
Procedure: To produce a suitable preparation of active compound, 1 part by weight of active compound is mixed with the stated amounts of solvents and emulsifier, and the concentrate is diluted with emulsifier-containing water to the desired concentration.
Discs of bean leaves (Phaseolus vulgaris) which are infested by all stages of the greenhouse red spider mite (Tetranychus urticae) are sprayed with a preparation of active compound of the desired concentration.
After the desired period of time, the activity in % is determined. 100% means that all spider mites have been killed; 0% means that none of the spider mites have been killed.

[2] = system: larvae of the mustard beetle (Phaedon cochleariae); assay: Phaedon test (spray treatment); type: in vivo; conditions: 500 g/ha, spray treatment of Chinese cabbage discs
Procedure: [table] To produce a suitable preparation of active compound, 1 part by weight of active compound is mixed with the stated amounts of solvents and emulsifier, and the concentrate is diluted with emulsifier-containing water to the desired concentration. Discs of Chinese cabbage (Brassica pekinensis) are sprayed with a preparation of active compound of the desired concentration and, after they have dried, populated with larvae of the mustard beetle (Phaedon cochleariae).

Summer barley = assay: Herbicidal post-emergence action, use of safeners, vessel trials with cereals in the greenhouse (Example B); conditions: in vivo
Procedure: (§2) Seeds of monocotyledonous and dicotyledonous weed and crop plants are placed into sandy loam in wood fibre pots or in plastic pots, covered with soil and cultivated in a greenhouse, during the vegetation period also outdoors outside of the greenhouse, under good growth conditions. 2-3 weeks after sowing, the test plants are treated at the one- to three-leaf stage. The test compounds, formulated as wettable powders (WP) or emulsifiable concentrates (EC) are, in various dosages with a water application rate of 300 l/ha (converted), with wetting agent (0.2 to 0.3%) added, sprayed onto the plants and the surface of the soil. 3-4 weeks after the treatment of the test plants, the effect of the preparations is rated visually in comparison to untreated controls (herbicidal effect in percent (%): 100% effect=the plants have died, 0% effect=like control plants). […]

Summer wheat = assay: as above; conditions: in vivo
Procedure: as §2

[3] = rated visually after about 3 weeks
[4] = rated visually after about 3 weeks (second table)

SMILES | herbicidal effect in percent, Avena sativa (Avena sativa; [3]) [%] | herbicidal effect in percent, Setaria (Setaria; [3]) [%] | herbicidal effect in percent, Lolium (Lolium; [3]) [%] | herbicidal effect in percent, Sinapis (Sinapis) [%] | herbicidal effect in percent, Avena sativa (Avena sativa; [4]) [%] | herbicidal effect in percent, Setaria (Setaria; [4]) [%] | herbicidal effect in percent, Lolium (Lolium; [4]) [%] | also measured
CCc1cc(C)cc(C)c1C1=C(O)C(C)N(CC)C1=O (centres unmarked) [Example I-a-1] | 80 | 90 | 100 | – | – | – | – | –
CCOC(=O)OC1=C(c2c(C)cc(C)cc2CC)C(=O)NC1(C)C [I-c-2] | – | – | – | 70 | 100 | 100 | 100 | herbicidal effect in percent, Stellaria (Stellaria): 70%
CCc1cc(C)cc(C)c1C1=C(OC(=O)C(C)C)C(C)(C2CC2)NC1=O (centres unmarked) [Example I-b-10] | – | – | – | – | – | – | – | Kill rate in % after 5 d [1]: 90%; Kill rate in % after 5 d [2]: 100%
CCOC(=O)OC1=C(c2c(C)cc(C)cc2CC)C(=O)N(CC)C1C (centres unmarked) [Example I-c-1] | 90 | 100 | 100 | – | – | – | – | –
CCc1cc(C)cc(C)c1C1=C(O)C(C)(C(C)C)NC1=O (centres unmarked) [I-a′-2] | – | – | – | – | – | – | – | Summer barley observed (%) (Summer barley): 20%; Summer wheat observed (%) (Summer wheat): 25%
CCc1cc(C)cc(C)c1C1=C(O)CN(C2CC2)C1=O [I-a-3] | – | – | – | 70 | 80 | 90 | 100 | –
CCc1cc(C)cc(C)c1C1=C(OC(=O)C(C)(C)C)C(C)(C(C)C)NC1=O (centres unmarked) [I-b-3] | 90 | 80 | 70 | – | – | – | – | –
CCOC(=O)OC1=C(c2c(C)cc(C)cc2CC)C(=O)NC1(C)C(C)C (centres unmarked) [Example I-c-3] | 90 | 90 | 100 | – | – | – | – | –
CCc1cc(C)cc(C)c1C1=C(OC(=O)C(C)C)C(CC)(CC)NC1=O [Example I-b-18] | – | – | – | – | – | – | – | Kill rate in % after 5 d [1]: 100%; Kill rate in % after 5 d [2]: 100%
CCc1cc(C)cc(C)c1C1=C(OC(=O)C(C)C)C(C)(C)NC1=O [Example I-b-2] | – | – | – | 70 | 100 | 100 | 100 | herbicidal effect in percent, Stellaria (Stellaria): 80%
